Experiments:
[1] = test system: melanoma patient derived xenograft (PDX); experiment: Efficacy in melanoma patient derived xenograft bearing rat (per os); format: in vivo; conditions: 27 mg/kg q3w per os
Description: The same experiments were repeated with melanoma PTX bearing rat.

bone marrow = experiment: Bone marrow depletion and recovery after i.v. treatment (sternum sections); format: in vivo, rat; conditions: i.v. 20 mg/kg
Description: All tissues were processed to FFPE according to routine procedures and following fixation, rat sternum was decalcified in Citrate/EDTA buffer for 5 days, with buffer exchange every 24 h. Sections were cut at 3 μm using a microtome. p21 and cleaved Caspase-3 immunohistochemistry was performed on a Ventana Discovery XT automated immunostainer using the OmniMap anti Mouse or Rabbit HRP secondary reagent and the ChromoMap DAB chromogen system (Ventana/Roche Diagnostics GmbH, Mannheim, Germany). Antigen retrieval was done by using Cell Conditioning Discovery CC1 (Ventana/Roche Diagnostics) at mild (95° 8 min+100° 20 min, for cleaved Caspase-3) or standard (95° 8 min+100° 36 min, for p21) conditions. The primary antibody was applied manually at the desired dilution in Dako antibody diluent, followed by incubation for 1 hour at room temperature. Corresponding negative controls were incubated with AbD only. Counterstaining of sections was done using hematoxylin (Ventana/Roche Diagnostics). After the automated staining run, slides were dehydrated in a graded series of ethanol, cleared in xylene and mounted with Pertex mounting medium.

[2] = test system: white blood cells (WBC), neutrophils and platelets; experiment: White blood cells, neutrophils and platelets count (Sysmex); format: in vivo, nude rat
Description: The white blood cells (WBC), neutrophils and platelets were counted using a Sysmex (XT-2000i).
Blood was collected into commercially prepared EDTA coated microtubes (BD Microtainer, cat #365975).

BBC3 (puma) = experiment: Pharmacodynamic qRT-PCR: Puma mRNA induction in SJSA-1 tumor; format: in vivo, Human
Description: At the times indicated, animals were anaesthetized by exposure to 2-3% v/v isofluorane in medical oxygen: • Either the animal was killed without recovering from anesthetic after blood sampling. Blood was collected into commercially prepared EDTA coated tubes (Milian, cat #TOM-14C) in order to extract plasma. The tissues were excised, weighed and rapidly frozen in liquid nitrogen. • Or a tumor biopsy was collected by using a biopsy gun and flushing the needle with RLT buffer in Barney rubble tubes (Covaris, cat #520048). In addition, 20 μl of blood may have been collected from the tail vein and diluted in 20 μl of water. After recovery of anesthesia, animals were transferred in their respective cages.
Frozen tissues were cryogenic dry pulverized and biopsies were sonicated using the CryoPrep™ system (model CP-02) from Covaris. More specifically, frozen tissues were transferred to disposable tubes called TissueTubes™, placed in the CryoPrep™ system and then pulverized using the appropriate impact setting. The resulting powder was collected with a spatula and weighed for further processing (mRNA purification or quantification of compound in tissues). The biopsies were flushed in a Barney rubble glass tubes with 350 μl of RLT buffer and placed in the Covaris for sonication (1 min per biopsy). The resulting lysate was transferred into a QIAshredder (79654, Qiagen) column for RNA extraction.
Total RNA was purified from cell pellets using the QIAshredder (79654, Qiagen) and RNeasy Mini Kit (74106, Qiagen) according to the manufacturer's instructions, with the exception that no DNA digestion was performed. Total RNA was eluted with 50 μL of RNase-free water. Total RNA was quantitated using the spectrophotometer ND-1000 Nanodrop®. The qRT-PCR (Quantitative Reverse Transcriptase Polymerase Chain Reaction) was set up in triplicate per sample using the One-Step RT qPCR Master Mix Plus (RT-QPRT-032X, Eurogentec), with either control primers and primers for the target, namely TaqMan Gene Expression assays (20× probe dye FAM™ (or VIC)-TAMRA (or MGB); Applied Biosystems) listed in Table 1.

[3] = Tolerability in SJSA-1 tumor-bearing nude rat (body weight, survival); format: in vivo
Description: Subcutaneous tumors were induced by concentrating 1.0×10^7 SJSA-1 cells in 50% Matrigel® and injecting in the right flank of Harlan nude rats.
[formula] Similarly, the body-weight (BW) of the animal was measured three times per week allowing calculation at any particular time-point relative to the day of initiation of treatment (day 0) of the percentage change in BW (Δ % BW).

[4] = p.o. q3w 27 mg/kg, before the second treatment

**Q.** For `COc1ncc(-c2nc3c(n2C(C)C)[C@H](c2ccc(Cl)cc2)N(c2cc(Cl)cn(C)c2=O)C3=O)c(OC)n1` [Compound A, (S)-5-(5-Chloro-1-methyl-2-oxo-1,2-dihydro-pyridin-3-yl)-6-(4-chloro-phenyl)-2-(2,4-dimethoxy-pyrimidin-5-yl)-1-isopropyl-5,6-dihydro-1H-pyrrolo[3,4-d]imidazol-4-one], which “efficacy of intermittent dosing” value [1] is on record?
**A.** showed efficacy

**Q.** What about the bone marrow state (bone marrow; 14 days post treatment) of the same compound?
**A.** severe bone marrow depletion

**Q.** What about the bone marrow recovery (bone marrow; day 22) of the same compound?
**A.** partial recovery

**Q.** And the “recovery of WBCs, neutrophils and platelets” value ([2]; i.v. q3w 18.2 mg/kg, day 21 post second treatment)?
**A.** only partially recovered

**Q.** What about the “WBCs, neutrophils and platelets” value ([2]; i.v. q3w 20 mg/kg, after the first treatment) of the same compound?
**A.** dramatic decrease

**Q.** What about the “WBCs, neutrophils and platelets” value ([2]; i.v. q3w 20 mg/kg, after the second treatment) of the same compound?
**A.** extremely low level close to 0

**Q.** What about the “recovery of WBCs, neutrophils and platelets” value ([2]; i.v. q3w 20 mg/kg, day 21 post treatment, most rats) of the same compound?
**A.** only partially recovered

**Q.** What about the “WBCs, neutrophils and platelets” value ([2]; i.v. q3w 13.7 and 18.2 mg/kg, after the first treatment) of the same compound?
**A.** strong decrease

**Q.** What about the “recovery of WBCs, neutrophils and platelets” value ([2]; i.v. q3w 13.7 and 18.2 mg/kg, day 21 post treatment) of the same compound?
**A.** fully recovered

**Q.** And the “recovery of WBCs and platelets” value ([2]; p.o. q3w 20 mg/kg, before the second treatment)?
**A.** fully recovered

**Q.** What about the “recovery of WBCs” value [2, 4] of the same compound?
**A.** only partially

**Q.** And the recovery of platelets [2, 4]?
**A.** fully recovered

**Q.** What about the “WBCs, neutrophils and platelets” value ([2]; p.o. q3w 20 and 27 mg/kg) of the same compound?
**A.** dose-dependent decrease

**Q.** What about the “Puma mRNA expression in tumor” value (BBC3 (puma); after first p.o. treatment, 20 and 27 mg/kg) of the same compound?
**A.** dose-dependently increased

**Q.** What about the “Puma mRNA expression increase in tumor” value (BBC3 (puma); after first single i.v. treatment 20 mg/kg) of the same compound?
**A.** more than 50 fold

**Q.** What about the “Puma mRNA expression induction” value (BBC3 (puma); below the high dose) of the same compound?
**A.** 5-6 fold

**Q.** What about the “Puma mRNA induction Emax” value (BBC3 (puma); higher single dose, intravenously or per os) of the same compound?
**A.** ≥ 70 fold induction

**Q.** What about the “Puma mRNA expression max” value (BBC3 (puma); single i.v. 20 mg/kg, 24 h post treatment, tumor) of the same compound?
**A.** 180 fold

**Q.** And the “Puma mRNA induction Emax” value (BBC3 (puma); single oral 27 mg/kg, 48 h post treatment, tumor)?
**A.** 162 fold

**Q.** And the “ABW (%)” value ([3]; i.v. q3w 13.7 mg/kg, week 1 post treatment)?
**A.** 2.7 ± 0.9%

**Q.** And the “ABW (%)” value ([3]; i.v. q3w 13.7 mg/kg, week 2 post treatment)?
**A.** 7.5 ± 1.0%

**Q.** And the “ABW (%)” value ([3]; i.v. q3w 18.2 mg/kg, week 1 post treatment)?
**A.** 2.5 ± 2.6%

**Q.** What about the “ABW (%)” value ([3]; i.v. q3w 18.2 mg/kg, week 2 post treatment) of the same compound?
**A.** 9.1 ± 1.9%

**Q.** And the “ABW (%)” value ([3]; i.v. q3w 18.2 mg/kg, week 3 post treatment)?
**A.** 11.9 ± 2.7%

**Q.** What about the “ABW (%)” value ([3]; i.v. q3w 18.2 mg/kg, week 5 post treatment) of the same compound?
**A.** 10.6 ± 2.3%

**Q.** What about the “ABW (%)” value ([3]; i.v. q3w 18.2 mg/kg, week 6 post treatment) of the same compound?
**A.** 5.9 ± 7.9%

**Q.** What about the “sacrifice because of excessive body weight (BW) loss” value ([3]; single i.v. 20 mg/kg, day 9 post treatment) of the same compound?
**A.** One rat had to be sacrificed
